Test results published in patent publication EP0971739B1 (priority 1997, dated 1998).

Tested on: tetanus toxoid
Set-up: species or system ICR mice
Settings: mouse, in vivo

CCCCCCCCCCCCCCCC(=O)OC[C@H](COP(=O)([O-])OCC[N+](C)(C)C)OC(=O)CCCCCCCCCCCCCCC [DPPC, 1,2-Dipalmitoyl-sn-glycero-3-phosphocholine]
Anti-Tetanus Toxoid Titer^-1 Fecal Extract d7P2° IgA: <50 | Anti-Tetanus Toxoid Titer^-1 Fecal Extract d7P2° IgG: <50 | Anti-Tetanus Toxoid Titers^-1 IgG1: 25,600 | Anti-Tetanus Toxoid Titers^-1 IgG2a: 1,600 | Anti-Tetanus Toxoid Titers^-1 IgG2b: 3,200 | Serum Anti-Tetanus Toxoid Titer^-1 IgA-Specific d10P2°: 100 | Serum Anti-Tetanus Toxoid Titer^-1 IgA-Specific d10P3°: 200 | Serum Anti-Tetanus Toxoid Titer^-1 IgG-Specific d10P2°: 6,400 | Serum Anti-Tetanus Toxoid Titer^-1 IgG-Specific d10P3°: 6,400
